# Measurements from patent US11167007B2, “FOXM1 modulators and uses thereof” (City of Hope, priority 2016, dated 2021).
# Entries after “also recorded” stand apart in the source; their conditions may differ.
# Experiments:
# AR [1] = test: Androgen-responsive luciferase reporter assay in GT1-7 cells; format: cell-based, murine; settings: for inhibition of AR transcriptional activity (luciferase): GT1-7 cells, treated overnight, FIG. 2A; for Fold Difference: GT1-7 luciferase
# Method: Luciferase Reporter Assay. […] The following day, cells and drugs were distributed to 96-well plates. 24 hours later, luciferase activity was assessed by a dual luciferase assay kit (Promega) on the Tecan plate reader. Samples were run in quadruplicates and a Student's t test was performed to determine significance, where p<0.05 was considered significant.
# In order to identify potential cell-type selective AR modulators, the FRET-based assay of AR conformation change was utilized. AR signaling is a complex process involving many steps in addition to ligand binding. One crucial step is the ligand-induced conformational change of AR, which brings the carboxy (C)- and amino (N)-termini of the receptor together. Full length AR with cyan fluorescent protein (CFP) or yellow fluorescent protein (YFP) fused to either end (CARY) produces a FRET signal upon AR conformation change (FIG. 1A). This produces an accurate and quantifiable read-out of AR activity. […] Cells were plated in 96 wells and treated with library compounds 24 hours prior to accessing conformational changes by FRET. […] Candidate hits were then further evaluated by dose response. […] In addition to FRET, AR transcriptional activity was also assessed in several cell lines by transfecting cells with a luciferase reporter driven by the human PSA promoter.
# AR [2] = test: Androgen-responsive luciferase reporter assay in C2C12 cells; format: cell-based, murine; settings: treated overnight, FIG. 2A
# Source text: Luciferase Reporter Assay. Cells were transfected using Lipofectamine Plus (Invitrogen) with a normalization plasmid (pRL-SV40, Promega) and an androgen responsive plasmid (MMTV-luciferase or PSA-luciferase) as described in Jones et al, ACS Chem Biol, 3(7):412-8 (2008), and, where indicated, with an shRNA plasmid targeting FOXM1 (adapted for mouse FOXM1 sequence targeting) a scrambled control shRNA plasmid, or ARQ24 or ARQ65 plasmids. Christensen et al, PLoS One, 8(1):e54556 (2013). The following day, cells and drugs were distributed to 96-well plates. 24 hours later, luciferase activity was assessed by a dual luciferase assay kit (Promega) on the Tecan plate reader. Samples were run in quadruplicates and a Student's t test was performed to determine significance, where p<0.05 was considered significant.
# In order to identify potential cell-type selective AR modulators, the FRET-based assay of AR conformation change was utilized. AR signaling is a complex process involving many steps in addition to ligand binding. One crucial step is the ligand-induced conformational change of AR, which brings the carboxy (C)- and amino (N)-termini of the receptor together. Full length AR with cyan fluorescent protein (CFP) or yellow fluorescent protein (YFP) fused to either end (CARY) produces a FRET signal upon AR conformation change (FIG. 1A). This produces an accurate and quantifiable read-out of AR activity. Jones et al, ACS Chem Biol, 3(7):412-8 (2008). Because the interest was in the potential of neuron selective AR inhibitors for treatment of SBMA, the initial screen was carried out in CARY-transfected GT1-7 cells, which are a mouse model of hypothalamic neurons. Liposits et al, Endocrinology, 129(3):1575-83 (1991). Cells were plated in 96 wells and treated with library compounds 24 hours prior to accessing conformational changes by FRET. […] Candidate hits were then further evaluated by dose response. […] In addition to FRET, AR transcriptional activity was also assessed in several cell lines by transfecting cells with a luciferase reporter driven by the human PSA promoter. […]
# [3] = system: AR activity in spinal cord; test: RT-qPCR of androgen-regulated transcripts in spinal cord; format: in vivo, rat; settings: rats, compared to control treatment, FIG. 5F
# Method: Animals and Drugs. This study was carried out in strict accordance with the recommendations in the Guide for the Care and Use of Laboratory Animals of the National Institutes of Health. All experiments were performed under the IUCAC approval of City of Hope. Animals were purchased from Jackson Laboratory (Bar Harbor, Main). For the pilot pharmacokinetic experiment, nine male Sprague Dawley rats (n=3) were administered 1, 10, or 100 mg/kg intraperitoneal injections thrice per week for four weeks. One hour following the final dose, blood and spinal fluid were collected and analyzed by mass spectrometry. For the efficacy experiment, rats were divided into 3 groups (n=7) as follows: intact, castrated, and thiostrepton. […] Following a treatment period of 7 days, rats were euthanized and organs harvested, weighed and processed for quantitative RT-PCR.
# qRT-PCR. The quantitative RT-PCR method has been described by Jones et al, ACS Chem Biol, 3(7):412-8 (2008). […] Differences between experimental (x) and control (y) samples were normalized to RPL19 transcript levels (androgen unresponsive) and determined with the following calculation: (2^(Ctsgene1-Ctygene1))/(2^(CtxRPL19-CtyRPL19)) One-way analysis of variance was applied to determine statistical significant among groups, where p<0.05 was considered significant. […]
# AR [4] = test: Immunohistochemistry of AR in spinal cord and muscle tissue; format: in vivo, rat; settings: rats, 100 mg/kg per day, four weeks
SMILES,inhibition of AR transcriptional activity (luciferase) (AR [1]),inhibition of AR transcriptional activity (luciferase) (AR [2]),"Fold Difference (AR [1]; DHT - 100 nM thiostrepton, Control shRNA)","Fold Difference (AR [1]; DHT - 100 nM thiostrepton, FOXM1 shRNA)","Fold Difference (AR [1]; DHT-10 nM thiostrepton, Control shRNA)","Fold Difference (AR [1]; DHT-10 nM thiostrepton, FOXM1 shRNA)","potency of thiostrepton on AR activity after decreasing FOXM1 expression (AR [1]; FOXM1 shRNA vs control, GT1-7, FIG. 3B)",androgen-dependent gene transcript levels in spinal cord [3],AR expression in striated muscle tissue nuclei (IHC) (AR [4]),AR levels in spinal cord neurons (IHC) (AR [4])
"C=C(NC(=O)C(=C)NC(=O)c1csc(C2=N[C@@H]3c4csc(n4)[C@H]4NC(=O)c5csc(n5)[C@H]([C@](C)(O)[C@@H](C)O)NC(=O)[C@H]5CSC(=N5)/C(=C/C)NC(=O)[C@H]([C@@H](C)O)NC(=O)c5csc(n5)[C@]3(CC2)NC(=O)[C@H](C)NC(=O)C(=C)NC(=O)C(=C)NC(=O)[C@H](C(C)C)N[C@@H]2C=Cc3c([C@H](C)O)cc(nc3[C@H]2O)C(=O)O[C@@H]4C)n1)C(N)=O [NSC285116, siomycin A]",selectively inhibit AR activity,not C2C12 cells,,,,,,,,
C=C(NC(=O)C(=C)NC(=O)c1csc(C2=N[C@@H]3c4csc(n4)[C@H]4NC(=O)c5csc(n5)[C@H]([C@](C)(O)[C@@H](C)O)NC(=O)[C@H]5CSC(=N5)/C(=C/C)NC(=O)[C@H]([C@@H](C)O)NC(=O)c5csc(n5)[C@]3(CC2)NC(=O)[C@H](C)NC(=O)C(=C)NC(=O)[C@H](C)NC(=O)[C@H]([C@@H](C)CC)N[C@@H]2C=Cc3c([C@H](C)O)cc(nc3[C@H]2O)C(=O)O[C@@H]4C)n1)C(N)=O [thiostrepton],most potent; also recorded: nanomolar potency; also recorded: selectively inhibit AR activity,not C2C12 cells,2.04,1.62,1.54,1.34,diminished the potency,decreases in three androgen-dependent genes,not affected,not affected
